Where two headings read alike, the source gives them in different places.
Assays:
Assay in all cases: biochemical
Type in all cases: binding
[1] = target: 468 kinases (Homo sapiens, UniProt P00519, F317L); conditions: read-out: % Inhibition @ 100 nM
[2] = target: 468 kinases (Homo sapiens, UniProt P00533); conditions: EGFR; read-out: % Inhibition @ 100 nM
[3] = target: 468 kinases (Homo sapiens, UniProt P00533, L858R/T790M); conditions: EGFR(L858R,T790M); read-out: % Inhibition @ 100 nM
[4] = target: 468 kinases (Homo sapiens, UniProt P07949, V804M); conditions: RET(V804M); read-out: % Inhibition @ 100 nM
[5] = target: 468 kinases (Homo sapiens, UniProt P08631); conditions: HCK; read-out: % Inhibition @ 100 nM
[6] = target: 468 kinases (Homo sapiens, UniProt P0C264); conditions: SgK110; read-out: % Inhibition @ 100 nM
[7] = target: 468 kinases (Homo sapiens, UniProt P10721, D816V); conditions: KIT(D816V); read-out: % Inhibition @ 100 nM
[8] = target: 468 kinases (Homo sapiens, UniProt P10721, T670I/V559D); conditions: KIT(V559D,T6701); read-out: % Inhibition @ 100 nM
[9] = target: 468 kinases (Homo sapiens, UniProt P10721, V559D/V654A); conditions: KIT(V559D,V654A); read-out: % Inhibition @ 100 nM
[10] = target: 468 kinases (Homo sapiens, UniProt P29323); conditions: EPHB2; read-out: % Inhibition @ 100 nM
[11] = target: 468 kinases (Homo sapiens, UniProt P36507); conditions: MEK2; read-out: % Inhibition @ 100 nM
[12] = target: 468 kinases (Homo sapiens, UniProt P42679); conditions: CTK; read-out: % Inhibition @ 100 nM
[13] = target: 468 kinases (Homo sapiens, UniProt P49759); conditions: CLK1; read-out: % Inhibition @ 100 nM
[14] = target: 468 kinases (Homo sapiens, UniProt Q04759); conditions: PRKCQ; read-out: % Inhibition @ 100 nM
[15] = target: 468 kinases (Homo sapiens, UniProt Q16584); conditions: MLK3; read-out: % Inhibition @ 100 nM
[16] = target: 468 kinases (Homo sapiens, UniProt Q56UN5); conditions: YSK4; read-out: % Inhibition @ 100 nM
[17] = target: 468 kinases (Homo sapiens, UniProt Q5S007); conditions: LRRK2; read-out: % Inhibition @ 100 nM
[18] = target: 468 kinases (Homo sapiens, UniProt Q6ZWH5); conditions: NEK10; read-out: % Inhibition @ 100 nM
[19] = target: 468 kinases (Homo sapiens, UniProt Q86Z02); conditions: HIPK1; read-out: % Inhibition @ 100 nM
[20] = target: 468 kinases (Homo sapiens, UniProt Q8IVW4); conditions: CDKL3; read-out: % Inhibition @ 100 nM
[21] = target: 468 kinases (Homo sapiens, UniProt Q8IYT8); conditions: ULK2; read-out: % Inhibition @ 100 nM
[22] = target: 468 kinases (Homo sapiens, UniProt Q8NE63); conditions: HIPK4; read-out: % Inhibition @ 100 nM
[23] = target: 468 kinases (Homo sapiens, UniProt Q8NEB9); conditions: VPS34; read-out: % Inhibition @ 100 nM
[24] = target: 468 kinases (Homo sapiens, UniProt Q8TD19); conditions: NEK9; read-out: % Inhibition @ 100 nM
[25] = target: 468 kinases (Homo sapiens, UniProt Q8TDC3); conditions: BRSK1; read-out: % Inhibition @ 100 nM
[26] = target: 468 kinases (Homo sapiens, UniProt Q92918); conditions: HPK1; read-out: % Inhibition @ 100 nM
[27] = target: 468 kinases (Homo sapiens, UniProt Q96BR1); conditions: SGK3; read-out: % Inhibition @ 100 nM
[28] = target: 468 kinases (Homo sapiens, UniProt Q99755); conditions: PIP5K1A; read-out: % Inhibition @ 100 nM
[29] = target: 468 kinases (Homo sapiens, UniProt Q9H093); conditions: SNARK; read-out: % Inhibition @ 100 nM
[30] = target: 468 kinases (Homo sapiens, UniProt Q9NY57); conditions: YANK2; read-out: % Inhibition @ 100 nM
[31] = target: 468 kinases (Homo sapiens, UniProt Q9Y2H1); conditions: NDR2; read-out: % Inhibition @ 100 nM
[32] = target: 468 kinases (Plasmodium falciparum, UniProt P61075); conditions: PFPK5 (P.falciparum); read-out: % Inhibition @ 100 nM

| Structure (SMILES) | inhibition at 0.1 µM ([1]; ABL1 (F317L)-phosphorylated) [%] | inhibition at 0.1 µM [2] [%] | inhibition at 0.1 µM [3] [%] | inhibition at 0.1 µM [4] [%] | inhibition at 0.1 µM [5] [%] | inhibition at 0.1 µM [6] [%] | inhibition at 0.1 µM [7] [%] | inhibition at 0.1 µM [8] [%] | inhibition at 0.1 µM [9] [%] | inhibition at 0.1 µM [10] [%] | inhibition at 0.1 µM [11] [%] | inhibition at 0.1 µM [12] [%] | inhibition at 0.1 µM [13] [%] | inhibition at 0.1 µM [14] [%] | inhibition at 0.1 µM [15] [%] | inhibition at 0.1 µM [16] [%] | inhibition at 0.1 µM [17] [%] | inhibition at 0.1 µM [18] [%] | inhibition at 0.1 µM [19] [%] | inhibition at 0.1 µM [20] [%] | also measured |
| --- | --- | --- | --- | --- | --- | --- | --- | --- | --- | --- | --- | --- | --- | --- | --- | --- | --- | --- | --- | --- | --- |
| CCN(CC)CCNC(=O)c1c(C)[nH]c(/C=C2\C(=O)Nc3ccc(CCC(N)=O)cc32)c1C [Compound No. 16, (Z)-5-((5-(3-Amino-3-oxopropyl)-2-oxoindolin-3-ylidene)methyl)-N-(2-(diethylamino)ethyl)-2,4-dimethyl-1H-pyrrole-3-carboxamide] | 20 | 64 | 18 | 99.3 | 0 | 0 | 24 | 23 | 0 | 10 | 83 | 16 | 90.7 | 0 | 0 | 98.2 | 94 | 20 | 92.6 | 0 | inhibition at 0.1 µM [21]: 82%; inhibition at 0.1 µM [22]: 57%; inhibition at 0.1 µM [23]: 46%; inhibition at 0.1 µM [24]: 0%; inhibition at 0.1 µM [25]: 27%; inhibition at 0.1 µM [26]: 95.2%; inhibition at 0.1 µM [27]: 26%; inhibition at 0.1 µM [28]: 91.1%; inhibition at 0.1 µM [29]: 81%; inhibition at 0.1 µM [30]: 0%; inhibition at 0.1 µM [31]: 11%; inhibition at 0.1 µM [32]: 40% |
| CCN(CC)CCNC(=O)c1c(C)[nH]c(/C=C2\C(=O)Nc3ccc(CCO)cc32)c1C [Compound No. 10, (Z)—N-(2-(Diethylamino)ethyl)-5-((5-(2-hydroxyethyl)-2-oxoindolin-3-ylidene)methyl)-2,4-dimethyl-1H-pyrrole-3-carboxamide] | 22 | 0 | 0 | 86 | 2 | 58 | 12 | 72 | 79 | 3 | 90.4 | 22 | 90.2 | 0 | 20 | 90.4 | 96.5 | 10 | 56 | 22 | inhibition at 0.1 µM ([1]; ABL1 (F317L)-nonphosphorylated): 6%; inhibition at 0.1 µM [21]: 71%; inhibition at 0.1 µM [22]: 28%; inhibition at 0.1 µM [23]: 25%; inhibition at 0.1 µM [24]: 0%; inhibition at 0.1 µM [25]: 29%; inhibition at 0.1 µM [26]: 96.6%; inhibition at 0.1 µM [27]: 0%; inhibition at 0.1 µM [28]: 98%; inhibition at 0.1 µM [29]: 80%; inhibition at 0.1 µM [30]: 1%; inhibition at 0.1 µM [31]: 0%; inhibition at 0.1 µM [32]: 0% |
